Data from patent US4788206A, “Pentadieneamides” (Hoffmann-La Roche Inc., priority 1987, dated 1988).

What was measured:
[1] = target: T1, PAF Binding, dog platelets (Canis lupus familiaris, UniProt A0A8I3NSH0); assay: PAF Binding Assay (inhibition of 3H-PAF binding to washed dog platelets); settings: dog platelets, 3H-PAF, 10 minutes at room temperature; read-out: Inhib of PAF Binding IC50
T1 construct: Washed platelets were prepared by resuspending the platelet pellet once with PBS containing 1 mM EDTA; from tissue; host or cells: washed platelets from dog blood
T1 sequence (A0A8I3NSH0 1-343): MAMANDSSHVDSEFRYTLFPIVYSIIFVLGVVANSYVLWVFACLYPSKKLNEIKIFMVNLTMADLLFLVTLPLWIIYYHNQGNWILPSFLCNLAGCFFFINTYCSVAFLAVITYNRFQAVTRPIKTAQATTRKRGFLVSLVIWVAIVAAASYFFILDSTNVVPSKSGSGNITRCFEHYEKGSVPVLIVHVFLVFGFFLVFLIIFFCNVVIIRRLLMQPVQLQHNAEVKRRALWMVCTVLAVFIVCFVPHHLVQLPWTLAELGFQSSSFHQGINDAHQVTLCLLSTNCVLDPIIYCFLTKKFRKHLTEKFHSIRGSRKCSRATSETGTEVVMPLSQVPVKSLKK
Method in brief: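 Washed dog platelets (2×10^7 per tube, in 0.1% BSA-PBS) incubated 10 min at room temperature with 3H-PAF and test analogs. Bound ligand separated by 1 min centrifugation through silicone oil; platelet pellet radioactivity counted by liquid scintillation.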

[2] = system: PAF-Induced Bronchoconstriction; assay: PAF Induced Bronchoconstriction Assay; type: in vivo, guinea pig; settings: for inhibition in vivo at 50 mg/kg: Cavia porcellus, po, 50 mg/Kg p.o., 2-hour pretreatment, read-out: Percent Inhib. of PAF-Induced Bronchoconstriction, 50 mg/Kg p.o.; for Percent Inhib. of PAF-Induced Bronchoconstriction, mg/Kg i.v.: i.v. (dose not given), 1 minute pretreatment, PAF 1.0 μg/kg i.v.
Method in brief: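 Male Hartley guinea pigs, urethane-anesthetized (2 g/kg i.p.), ventilated, with succinylcholine 1.2 mg/kg i.v. and propranolol 0.1 mg/kg i.v. pretreatment. Compound given i.v. 1 min or by oral gavage 2 h before i.v. PAF challenge at 1.0 μg/kg. Peak tracheal pressure rise over baseline compared with control mean gives % inhibition.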

[3] = system: PAF-Induced Platelet Count Decrease; assay: PAF Induced Platelet Count Decrease; type: in vivo, guinea pig; settings: Cavia porcellus, Platelet; 3 mg/Kg (route not given); read-out: Percent Inhib. of PAF-Induced Platelet Count Decrease, 3 mg/Kg
Experimental: PAF Induced Platelet Count Decrease
Male Hartley guinea pigs weighing between 500 and 900 grams were fed standard guinea pig chow and tap water ad libitum. PAF was solubilized in ethanol and stored as a 2 mM stock solution at -70° C. The stock solutuion of PAF was diluted to 1 pM in Tris buffer pH 7.4 and 0.1% BSA for all experiments.
(a) Intravenous Procedure
Guinea pigs were anesthetized with urethane (1.6 g/kg, i.p.). A catheter (PE50) was introduced into the right carotid artery for withdrawing blood. A second catheter PE10) was introduced into the jugular vein for injecting drugs and for administering the PAF challenge (75 ng/kg, i.v.). A control blood sample was obtained and platelets were counted in a whole blood platelet analyzer. PAF was then given and blood samples were taken 15, 30, and 60 seconds after the challenge for platelet counts. Fifteen minutes later, selected concentrations of the test compound were solubilized in DMSO and injected intravenously into a group of 4-6 animals. Only one concentration of antagonist was used in each animal group. Fifteen minutes after drug injection, blood smaples were taken before and 15, 30, and 60 sec after the PAF challenge, and analyzed for platelet number.
Animals were anesthetized with sodium pentobarbital (35 mg/kg. i.p.) and the caritoid artery and jugular vein were cannulated as described above. The cannulae were exteriorized at the base of the neck and the animals were allowed to recover. At least 18 hours after surgery, conscious unrestrained guinea pigs were used in the experiment. The animals were challenged two time with PAF (120 ng/kg. i.v.); the first to establish a consistent response to PAF and the second to serve as a control for the PAF challenge. Blood samples were taken before and 15, 30, and 45 seconds after PAF challenge and platelets were counted. Thirty minutes after the control PAF challenge, the animal were orally dosed with either gum acacia or the test compound. Animals were then challenged with PAF at 1, 3, 5, and 24 hours after the administration of the drug.
Data Analysis and Statistics
The % change, i.e., the difference in platelet number before and after PAF challenge was calculated by: [formula]
Statistical significance (p<0.05) of the difference between the mean PAF control and mean drug treated activity was determined with paried Students's t-test.

COc1cccc(C(=C/C=C/C(=O)N[C@H](C)CCCc2cccnc2)c2cccc(OC)c2)c1 [[R-(E)]-5,5-bis (3-methoxyphenyl)-N-[1-methyl-4-(3-pyridinyl)butyl]-2,4-pentadienamide]
IC50 [1]: 35 nM
inhibition in vivo at 50 mg/kg [2]: 87 ± 8%
Percent Inhib. of PAF-Induced Bronchoconstriction, mg/Kg i.v. [2]: 87 ± 4%
inhibition in vivo at 3 mg/kg [3]: 31%

COc1cccc(C(=C/C=C/C(=O)N[C@@H](C)CCCc2cccnc2)c2cccc(OC)c2)c1 [[S-(E)]-5,5-bis(3-methoxyphenyl)-N-[1-methyl-4-(3-pyridinyl)butyl]-2,4-pentadienamide]
IC50 [1]: 300 nM
inhibition in vivo at 50 mg/kg [2]: 10 ± 5%
Percent Inhib. of PAF-Induced Bronchoconstriction, mg/Kg i.v. [2]: 36 ± 4%
inhibition in vivo at 3 mg/kg [3]: 10%
